Values joined by “and” are separate entries in the source; they are usually repeats but may differ in a detail not shown here. Equal values may be shown once. Toxic doses and inconclusive results are not listed. Rule for the calls: active = survival T/C of 150% or more; inactive = T/C below 125% in these data.
Tested on: P388 leukemia ip, CD2F1 mice, survival T/C
Assay: NCI In Vivo Anticancer Drug Screen. Data for tumor model P388 Leukemia (intraperitoneal) in CD2F1 (CDF1) mice
Settings: endpoint: median survival time, higher = longer survival
How it was run: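 Mice carrying the transplanted tumor received test compound or vehicle. Survival was recorded in each group, and the value is the treated-group measurement divided by that of the vehicle-treated control group.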

[1] = dose: 60.0 mg/kg/injection, schedule: Q01DX005 (ip), vehicle: saline with Tween-80
[2] = dose: 120.0 mg/kg/injection, schedule: Q01DX005 (ip), vehicle: saline with Tween-80
[3] = dose: 240.0 mg/kg/injection, schedule: Q01DX005 (ip), vehicle: saline with Tween-80
[4] = dose: 50.0 mg/kg/injection, schedule: Q01DX009 (ip), vehicle: saline
[5] = dose: 100.0 mg/kg/injection, schedule: Q01DX009 (ip), vehicle: saline
[6] = dose: 50.0 mg/kg/injection, schedule: Q01DX009 (ip), vehicle: Klucel (hydroxypropylcellulose) (HPC)
[7] = dose: 100.0 mg/kg/injection, schedule: Q01DX009 (ip), vehicle: Klucel (hydroxypropylcellulose) (HPC)
[8] = dose: 200.0 mg/kg/injection, schedule: Q01DX009 (ip), vehicle: Klucel (hydroxypropylcellulose) (HPC)
[9] = dose: 15.0 mg/kg/injection, schedule: Q01DX005 (ip), vehicle: saline with Tween-80
[10] = dose: 30.0 mg/kg/injection, schedule: Q01DX005 (ip), vehicle: saline with Tween-80
[11] = dose: 50.0 mg/kg/injection, schedule: Q01DX005 (ip), vehicle: Klucel (hydroxypropylcellulose) (HPC)
[12] = dose: 200.0 mg/kg/injection, schedule: Q01DX005 (ip), vehicle: Klucel (hydroxypropylcellulose) (HPC)

Measured: T/C

COC1OC2COC(c3ccccc3)OC2C(OC(C)=O)C1OC(C)=O (centres undefined)
inactive: dose: 12.5 mg/kg/injection, schedule: Q01DX009 (ip), vehicle: other 98 % of control | dose: 25.0 mg/kg/injection, schedule: Q01DX009 (ip), vehicle: other 99 % of control | dose: 50.0 mg/kg/injection, schedule: Q01DX009 (ip), vehicle: other 100 % of control | dose: 100.0 mg/kg/injection, schedule: Q01DX009 (ip), vehicle: other 95 % of control | dose: 200.0 mg/kg/injection, schedule: Q01DX009 (ip), vehicle: other 100 % of control

CC1=C(C(=O)CC(=O)C(=O)Nc2ccc(C)cc2C)Sc2ccccc2N1
inactive: [1] 104 % of control | [2] 101 % of control | [3] 94 % of control

C#Cc1cccc(N=Cc2cc(Cl)cc(C)c2O)c1
inactive: dose: 50.0 mg/kg/injection, schedule: Q01DX005 (ip), vehicle: saline with Tween-80 88 % of control | dose: 100.0 mg/kg/injection, schedule: Q01DX005 (ip), vehicle: saline with Tween-80 91 % of control | dose: 200.0 mg/kg/injection, schedule: Q01DX005 (ip), vehicle: saline with Tween-80 102 % of control

N#Cc1nc2c(nc1C#N)-c1ccccc1/C2=C1/C(=O)Cc2ccccc21
inactive: [1] 98 % of control | [2] 99 % of control | [3] 102 % of control

CN1CCC(c2ccccc2)(c2ccccc2)OC1
inactive: dose: 25.0 mg/kg/injection, schedule: Q01DX009 (ip), vehicle: saline 100 % of control | [4] 100 % of control | [5] 113 % of control

CN=C1NC(=O)C(C(C)c2c[nH]c3ccccc23)S1 (centres undefined)
inactive: [6] 111 % of control | [7] 111 % of control | [8] 113 % of control

COCCCNC(=S)N/N=C/c1cccc(OC)c1O
inactive: dose: 50.0 mg/kg/injection, schedule: Q01DX009 (ip), vehicle: saline with Tween-80 101 % of control | dose: 100.0 mg/kg/injection, schedule: Q01DX009 (ip), vehicle: saline with Tween-80 111 % of control | dose: 200.0 mg/kg/injection, schedule: Q01DX009 (ip), vehicle: saline with Tween-80 88 % of control

N=C(N)SCc1ccc(C(=O)Oc2ccc([N+](=O)[O-])cc2)cc1
inactive: dose: 100.0 mg/kg/injection, schedule: Q04DX003 (ip), vehicle: saline with Tween-80 100 % of control | dose: 200.0 mg/kg/injection, schedule: Q04DX003 (ip), vehicle: saline with Tween-80 104 % of control

COc1ccccc1NC(=O)C1C(=O)C(=O)N(c2ccccc2OC)C1=O (centres undefined)
inactive: [6] 106 % of control | [7] 106 % of control | [8] 100 % of control

OCN(CO)c1nc(CCC(Cl)(Cl)Cl)nc(N(CO)CO)n1
inactive: dose: 12.5 mg/kg/injection, schedule: Q01DX009 (ip), vehicle: distilled water + Tween-80 96 % of control | dose: 25.0 mg/kg/injection, schedule: Q01DX009 (ip), vehicle: distilled water + Tween-80 99 % of control | dose: 50.0 mg/kg/injection, schedule: Q01DX009 (ip), vehicle: distilled water + Tween-80 114 % of control | dose: 100.0 mg/kg/injection, schedule: Q01DX009 (ip), vehicle: distilled water + Tween-80 116 % of control | dose: 200.0 mg/kg/injection, schedule: Q01DX009 (ip), vehicle: distilled water + Tween-80 89 % of control

CCCCCCCN(CCCCCCC)CC(O)c1c(Br)c2ccccc2c2ccccc12 (centres undefined)
inactive: dose: 10.0 mg/kg/injection, schedule: Q01DX009 (ip), vehicle: saline with Tween-80 115 % of control | dose: 20.0 mg/kg/injection, schedule: Q01DX009 (ip), vehicle: saline with Tween-80 115 % of control | dose: 40.0 mg/kg/injection, schedule: Q01DX009 (ip), vehicle: saline with Tween-80 98 % of control

CCOC(CSCC#N)OCC
inactive: dose: 12.5 mg/kg/injection, schedule: Q01DX009 (ip), vehicle: saline sonified 100 % of control | dose: 25.0 mg/kg/injection, schedule: Q01DX009 (ip), vehicle: saline sonified 95 % of control | dose: 50.0 mg/kg/injection, schedule: Q01DX009 (ip), vehicle: saline sonified 100 % of control

O=C(c1ccccc1)c1c(CO[N+](=O)[O-])n([O-])c2ccccc2[n+]1=O
inactive: [9] 105 % of control | [10] 109 % of control | [1] 104 % of control and 109 % of control

CCN(CC)CCCC(C)NC(=O)c1ccc2c(c1O)C(=O)c1ccccc1C2=O (centres undefined)
inactive: dose: 1.25 mg/kg/injection, schedule: Q01DX009 (ip), vehicle: water 100 % of control and 102 % of control | dose: 2.5 mg/kg/injection, schedule: Q01DX009 (ip), vehicle: water 101 % of control and 105 % of control | dose: 5.0 mg/kg/injection, schedule: Q01DX009 (ip), vehicle: water 106 % of control and 108 % of control | dose: 10.0 mg/kg/injection, schedule: Q01DX009 (ip), vehicle: water 99 % of control and 101 % of control and 94 % of control | dose: 20.0 mg/kg/injection, schedule: Q01DX009 (ip), vehicle: water 99 % of control and 101 % of control

CC1(C)OC2COC3(C(=O)O)OC(C)(C)OC3C2O1 (centres undefined)
inactive: [11] 100 % of control | dose: 100.0 mg/kg/injection, schedule: Q01DX005 (ip), vehicle: Klucel (hydroxypropylcellulose) (HPC) 100 % of control | [12] 98 % of control

CN(C)c1ccc(C(O)C(N)=O)cc1 (centres undefined)
inactive: dose: 6.25 mg/kg/injection, schedule: Q04DX003 (ip), vehicle: saline 100 % of control | dose: 12.5 mg/kg/injection, schedule: Q04DX003 (ip), vehicle: saline 104 % of control | dose: 25.0 mg/kg/injection, schedule: Q04DX003 (ip), vehicle: saline 100 % of control

CCn1c2ccccc2c2ccc(N=Cc3ccc4ccccc4c3)cc21
inactive: dose: 100.0 mg/kg/injection, schedule: Q04DX003 (ip), vehicle: saline + alcohol 92 % of control | dose: 200.0 mg/kg/injection, schedule: Q04DX003 (ip), vehicle: saline + alcohol 97 % of control | dose: 400.0 mg/kg/injection, schedule: Q04DX003 (ip), vehicle: saline + alcohol 97 % of control

CCN(CC)CCCC(C)Nc1cc(OC)c2nc(C)cc(OC)c2c1OC (centres undefined)
inactive: dose: 1.56 mg/kg/injection, schedule: Q01DX009 (ip), vehicle: saline 100 % of control | dose: 3.12 mg/kg/injection, schedule: Q01DX009 (ip), vehicle: saline 89 % of control | dose: 6.25 mg/kg/injection, schedule: Q01DX009 (ip), vehicle: saline 91 % of control and 97 % of control

CCOC1=Nc2ccccc2C1(C)CCO (centres undefined)
inactive: [1] 96 % of control | [2] 101 % of control | [3] 96 % of control

COC(=O)c1c(OC)cc2cc3c(c(O)c2c1C)C(=O)C1(O)C(=O)C=C(OC)C(OC(=O)CC(C)N)=C1C3=O (centres undefined)
inactive: dose: 25.0 mg/kg/injection, schedule: Q01DX005 (ip), vehicle: water 103 % of control | dose: 50.0 mg/kg/injection, schedule: Q01DX005 (ip), vehicle: water 100 % of control | dose: 100.0 mg/kg/injection, schedule: Q01DX005 (ip), vehicle: water 104 % of control

CCOC(=O)NN(C(=O)OCC)/C(C(=O)OCC)=C(/C)N
inactive: [4] 97 % of control and 102 % of control and 93 % of control | [5] 97 % of control and 104 % of control | dose: 200.0 mg/kg/injection, schedule: Q01DX009 (ip), vehicle: saline 98 % of control and 89 % of control

CC(=O)Oc1ccccc1C(=O)OC1CC(C)CCC1C(C)C (centres undefined)
inactive: dose: 12.5 mg/kg/injection, schedule: Q01DX005 (ip), vehicle: Klucel (hydroxypropylcellulose) (HPC) 99 % of control | dose: 25.0 mg/kg/injection, schedule: Q01DX005 (ip), vehicle: Klucel (hydroxypropylcellulose) (HPC) 106 % of control | [11] 88 % of control and 94 % of control | [12] 103 % of control

C[n+]1ccc2ccccc2c1
inactive: [9] 109 % of control | [10] 100 % of control | [1] 100 % of control and 104 % of control

COc1cc2c(cc1OC)[C@@H](CO)[C@H]1c3cc4c(cc3CCN1C2)OCO4
inactive: dose: 50.0 mg/kg/injection, schedule: Q04DX003 (ip), vehicle: distilled water + Tween-80 106 % of control and 115 % of control | dose: 100.0 mg/kg/injection, schedule: Q04DX003 (ip), vehicle: distilled water + Tween-80 100 % of control and 98 % of control | dose: 200.0 mg/kg/injection, schedule: Q04DX003 (ip), vehicle: distilled water + Tween-80 105 % of control and 120 % of control

COc1cc(OC(=O)N(CCCl)N=O)cc(OC)c1OC
inactive: dose: 12.5 mg/kg/injection, schedule: Q01DX001 (ip), vehicle: Klucel (hydroxypropylcellulose) (HPC) 112 % of control | dose: 25.0 mg/kg/injection, schedule: Q01DX001 (ip), vehicle: Klucel (hydroxypropylcellulose) (HPC) 101 % of control | dose: 50.0 mg/kg/injection, schedule: Q01DX001 (ip), vehicle: Klucel (hydroxypropylcellulose) (HPC) 103 % of control

O=C(NC(Sc1ccc(Cl)cc1)C(=O)O)c1ccccc1 (centres undefined)
inactive: [6] 104 % of control | [7] 94 % of control | [8] 94 % of control
